{"source": "patent US20170266164A1", "about": "“NEW METHODS AND USES” (Vicore Pharma AB, priority 2014, published 2017)", "key": {"[1]": {"system": "Angiotensin-II", "experiment": "Plasma and urine Angiotensin-II level (EIA) in drug-treated sickle mice", "type": "in vivo, mouse", "conditions": "compared to untreated Berk-SS controls", "experimental": "Urine and plasma Angiotensin-II level was measured by using the Angiotensin II EIA kit (Cayman Chemical Company, Ann Arbor, Mich., catalog# A05880) following the manufacturer's instructions.\nMice were given the following drug treatments: a) Captopril (West-Ward Pharmaceutical, West Eatontown, N.J., NDC number #0143-1173-01) 0.15 mg/ml in drinking water. b) Losartan (Teva Pharmaceuticals USA Inc, North Wales, Pa., -NDC number#00937366-98) 0.3-0.6 mg/ml in drinking water. c) C21 (Vicore Pharma AB, Haraldsgatan 5, S-413 14 Goteborg, Sweden; Batch/Lot number # A11202910) 10 mg/kg/day in drinking water. Losartan and captopril water bottles were changed twice a week with fresh drugs and C21 was changed daily."}, "[2]": {"system": "Berk-SS/WT chimeric mice", "experiment": "Urine albumin, urine osmolality and glomerular disease in drug-treated sickle hematopoietic chimeras", "type": "in vivo, mouse", "conditions": "for albuminuria: Berk-SS/WT chimeric mice vs untreated chimeras; for glomerular disease: hematopoietic SCD chimeras; for UCA (urine osmolality): sickle chimeric mice, after 8 hour water deprivation", "text": "The Berk-AA mice are still relatively outbred and cannot be transplanted into BI/6 or Berk-SS mice without significant graft versus host disease. Knock-in SS (B6; 129-Hba^tm1(HBA)Tow Hbb^tm2(HBG1,HBB*)Tow/Hbb^tm3(HBG1,HBB)Tow/J) mice were kindly provided by Dr. Timothy Townes (University of Alabama, Birmingham). AT1R^-/- mice ([…]1Unc/J) were purchased from Jackson laboratories (Bar Harbor, Me.). AT2R^-/- mice were kindly provided by Dr. […] (Vanderbilt University School of Medicine, Nashville, Tenn.). Bone marrow from donor Berkeley sickle mice (or 057BI/6 control mice) were distributed 1:5 among the 057BI/6, AT1R^-/- and AT2R^-/- lethally irradiated (1175 cGy) recipient mice. All animals were maintained in the Cincinnati Children's Research Foundation's vivarium using protocols approved by the Institutional Animal Care and Use Committee. Twenty-four hour urine was collected using metabolic cages. Urine volume was measured and then protein stabilization buffer (0.4 mM ophenanthroline, 1 mM p-hydroxymercuribenzoic acid and 0.12 mM pepstatin A and 0.5M EDTA, pH 8.0) was added to a portion of urine to stabilize Ang-11. The rest of the urine was used for other analyses, including GFR, albumin, osmolality. Temporal assessments of urine albumin, creatinine and osmolality were made after an 8 hour water deprivation in SCD chimeric mice. […] Therefore, in Berk-SS mice (untransplanted/“straight SCD” native sickle mice) no water deprivation was performed prior to urine collection. Urine albumin level was measured using the mouse albumin ELISA kit (Bethyl Laboratories, Montgomery, Tex., catalog# E90-134). The ELISA was performed in a 96-well clear micro-plate (R&D systems, Minneapolis, Minn., catalog # DY990) as per manufacturer's instructions. Urine osmolality was measured by vapor pressure osmometer, Vapro 5600, (Wescor Biomedical Systems, South Logan, Utah). Urine creatinine was measured using the creatinine parameter assay kit (R&D Systems, Minneapolis, Minn., catalog# KGE005). Plasma creatinine was measured using the creatinine assay kit (Abcam, Cambridge, Mass., catalog# ab65340) following the manufacturer's instructions. Mice were given the following drug treatments: a) Captopril (West-Ward Pharmaceutical, West Eatontown, N.J., NDC number #0143-1173-01) 0.15 mg/ml in drinking water. b) Losartan (Teva Pharmaceuticals USA Inc, North Wales, Pa., -NDC number#00937366-98) 0.3-0.6 mg/ml in drinking water. c) C21 (Vicore Pharma AB, […], Sweden; Batch/Lot number # A11202910) 10 mg/kg/day in drinking water. Losartan and captopril water bottles were changed twice a week with fresh drugs and C21 was changed daily. In order to determine the role of the angiotensin receptors in SN, the inventors generated hematopoietic chimeric animals through bone marrow (BM) transplantation. First, they transplanted BM from Berk-SS mice into WT [057BI/6 (CD45.2+) or congenic CD45.1+BI/6] mice; mice that developed >95% sickle chimerism were followed for 6-9 months. Berk-SS/WT chimeras also developed hyperangiotensinemia followed by SN. Like in native (untransplanted) sickle mice, losartan or captopril ameliorated glomerular disease, but worsened UCA of hematopoietic SCD chimeras."}, "[3]": {"system": "RBC and platelets of Berk-SS/WT hematopoietic chimeras", "experiment": "ROS analysis (CM-H2DCFDA flow cytometry) of blood cells of drug-treated Berk-SS chimeras", "type": "in vivo, mouse", "experimental": "(§1) ROS was measured in WBC, RBC and platelets by mixing 0.5 μl of whole blood with 100 μl of FACS buffer (1×PBS, 0.5% bovine serum albumin), 0.1 μl of biotin anti-mouse Ter-119/erythroid Ly-76 antibody (BD Biosciences, San Jose, Calif., catalog#553672), 1 μl of Streptavidin APC-CyTM^7 (BD Biosciences, catalog#554063), 1 μl of PE anti-mouse CD45 antibody (BD Biosciences, cat#553081). […] All the tubes were incubated at room temperature for 20-30 minutes. The samples were washed with PBS at 200×g for 5 min and 100 μl of CM-H2DCFDA in 1:200 dilution was added to all sample tubes and the CM-H2DCFDA compensation tube while 100 μl of PBS was added to the rest of three compensation samples. The tubes were incubated for 30 minutes at 37° C. All the tubes were washed with 500 μl of PBS and centrifuged at 200×g for 5 min. After removing the supernatant the pellet was re-suspended in 200 μl of ice-cold PBS. Samples were stored on ice until analyzed on a BD FACSCantoTM II flow cytometer (BD Biosciences, San Jose, Calif.) by gating on the WBC, RBC and platelets. Mice were given the following drug treatments: a) Captopril (West-Ward Pharmaceutical, West Eatontown, N.J., NDC number #0143-1173-01) 0.15 mg/ml in drinking water. b) Losartan (Teva Pharmaceuticals USA Inc, North Wales, Pa., -NDC number#00937366-98) 0.3-0.6 mg/ml in drinking water. c) C21 (Vicore Pharma AB, […], Sweden; Batch/Lot number # A11202910) 10 mg/kg/day in drinking water. Losartan and captopril water bottles were changed twice a week with fresh drugs and C21 was changed daily."}, "[4]": {"system": "erythrocytes and platelets of SCD mice", "experiment": "ROS analysis (CM-H2DCFDA flow cytometry) of blood cells of drug-treated SCD mice", "type": "in vivo, mouse", "experimental": "as §1"}, "[5]": {"system": "Berk-SS mice", "experiment": "Urine concentrating ability (urine osmolality), glomerulopathy and survival in drug-treated sickle mice", "type": "in vivo", "text": "The Berk-AA mice are still relatively outbred and cannot be transplanted into BI/6 or Berk-SS mice without significant graft versus host disease. Knock-in SS (B6; 129-Hba^tm1(HBA)Tow Hbb^tm2(HBG1,HBB*)Tow/Hbb^tm3(HBG1,HBB)Tow/J) mice were kindly provided by Dr. Timothy Townes (University of Alabama, Birmingham). AT1R^−/− mice (B6.129P2Agtr1a^tm1Unc/J) were purchased from Jackson laboratories (Bar Harbor, Me.). AT2R^−/− mice were kindly provided by Dr. Tadashi Inagami (Vanderbilt University School of Medicine, Nashville, Tenn.). […]\nTwenty-four hour urine was collected using metabolic cages. Urine volume was measured and then protein stabilization buffer (0.4 mM ophenanthroline, 1 mM p-hydroxymercuribenzoic acid and 0.12 mM pepstatin A and 0.5M EDTA, pH 8.0) was added to a portion of urine to stabilize Ang-11. […] Urine albumin level was measured using the mouse albumin ELISA kit (Bethyl Laboratories, Montgomery, Tex., catalog# E90-134). […] Urine osmolality was measured by vapor pressure osmometer, Vapro 5600, (Wescor Biomedical Systems, South Logan, Utah). Urine creatinine was measured using the creatinine parameter assay kit (R&D Systems, Minneapolis, Minn., catalog# KGE005). Plasma creatinine was measured using the creatinine assay kit (Abcam, Cambridge, Mass., catalog# ab65340) following the manufacturer's instructions. […]"}, "[6]": {"target": "T1, AT2 receptor (Rattus norvegicus, UniProt P35351)", "T1 construct": "Stimulation of the AT2 receptor with C21 (as defined herein) ameliorates LV fibrosis; host or cells: rat heart (in vivo, endogenous receptor)", "T1 sequence (P35351 1-363)": "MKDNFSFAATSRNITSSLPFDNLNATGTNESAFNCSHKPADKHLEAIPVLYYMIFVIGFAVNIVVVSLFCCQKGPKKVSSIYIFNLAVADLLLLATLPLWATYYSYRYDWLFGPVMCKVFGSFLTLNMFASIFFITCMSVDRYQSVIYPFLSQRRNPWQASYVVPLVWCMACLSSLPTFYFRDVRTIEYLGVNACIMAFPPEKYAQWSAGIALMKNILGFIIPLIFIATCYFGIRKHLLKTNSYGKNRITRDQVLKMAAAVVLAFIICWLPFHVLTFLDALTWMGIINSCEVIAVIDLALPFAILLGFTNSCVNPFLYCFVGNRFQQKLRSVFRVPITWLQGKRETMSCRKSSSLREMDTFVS", "conditions": "rat heart; regulation of TIMP1/MMP9 and TGF β1; cited from earlier work"}}, "note": "Entries after “also recorded” stand apart in the source; their conditions may differ.", "data": [{"smiles": "CCCCc1nc(Cl)c(CO)n1Cc1ccc(-c2ccccc2-c2nn[nH]n2)cc1", "note": "[losartan]", "values": [{"measurement": "plasma AngII levels", "setting": "[1]", "value": "lower; also recorded: reduced"}, {"measurement": "urine AngII levels", "setting": "[1]", "value": "lower; also recorded: reduced"}, {"measurement": "albuminuria", "setting": "[2]", "value": "did not develop albuminuria"}, {"measurement": "glomerular disease", "setting": "[2]", "value": "ameliorated"}, {"measurement": "UCA (urine osmolality)", "setting": "[2]", "value": "worsened"}, {"measurement": "RBC (erythrocyte) ROS", "setting": "[3]", "value": "significantly lowered"}, {"measurement": "platelet ROS", "setting": "[3]", "value": "not platelets; also recorded: unchanged"}, {"measurement": "erythrocyte ROS", "setting": "[4]", "value": "significantly lowered; also recorded: specifically lowered"}, {"measurement": "platelet ROS", "setting": "[4]", "value": "unaffected"}]}, {"smiles": "CCCCOC(=O)NS(=O)(=O)c1sc(CC(C)C)cc1-c1ccc(Cn2ccnc2)cc1", "note": "[Compound C21, N-butyloxycarbonyl-3-(4-imidazol-1-ylmethylphenyl)-5-iso-butylthiophene-2-sulfonamide]", "values": [{"measurement": "urine concentrating ability (UCA)", "setting": "[5]; sickle (SCD) mice, drug in drinking water", "value": "improve"}, {"measurement": "LV fibrosis", "setting": "[6]", "value": "ameliorates"}]}, {"smiles": "C[C@H](CS)C(=O)N1CCC[C@H]1C(=O)O", "note": "[captopril]", "values": [{"measurement": "mortality", "setting": "[5]; Berk-SS mice on drug from 4 weeks of age, from severe hyposthenuria and dehydration", "value": "high mortality"}, {"measurement": "plasma AngII levels", "setting": "[1]", "value": "lower; also recorded: reduced"}, {"measurement": "urine AngII levels", "setting": "[1]", "value": "lower; also recorded: reduced"}, {"measurement": "albuminuria", "setting": "[2]", "value": "did not develop albuminuria"}, {"measurement": "glomerular disease", "setting": "[2]", "value": "ameliorated"}, {"measurement": "UCA (urine osmolality)", "setting": "[2]", "value": "worsened"}, {"measurement": "RBC (erythrocyte) ROS", "setting": "[3]", "value": "significantly lowered"}, {"measurement": "platelet ROS", "setting": "[3]", "value": "not platelets; also recorded: unchanged"}, {"measurement": "erythrocyte ROS", "setting": "[4]", "value": "significantly lowered; also recorded: specifically lowered"}, {"measurement": "platelet ROS", "setting": "[4]", "value": "unaffected"}]}]}
